Results published in patent US7208502B2, “Methods of treating conditions associated with an Edg-3 receptor” (Maniv Energy Capital, priority 2002, dated 2007).

Columns and labels:
[1] = molecular target: T1, Angiotensin AT2 (Homo sapiens, UniProt P50052); assay: Radioligand binding assay, 125I CGP-42112A; conditions: 10 μM; significance criteria ≧50% of max stimulation or inhibition
T1 construct: expressed in transfected cells; host or cells: HeLa cells
T1 sequence (P50052 1-363): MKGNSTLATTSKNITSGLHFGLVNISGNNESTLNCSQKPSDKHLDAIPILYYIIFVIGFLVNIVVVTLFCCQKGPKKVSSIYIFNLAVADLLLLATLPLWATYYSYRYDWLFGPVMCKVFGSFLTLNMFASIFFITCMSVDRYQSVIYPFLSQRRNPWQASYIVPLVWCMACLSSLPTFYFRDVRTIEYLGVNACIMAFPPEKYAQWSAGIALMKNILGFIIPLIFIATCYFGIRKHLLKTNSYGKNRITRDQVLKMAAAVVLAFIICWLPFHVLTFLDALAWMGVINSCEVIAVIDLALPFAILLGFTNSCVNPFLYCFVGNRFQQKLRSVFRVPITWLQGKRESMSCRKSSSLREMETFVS
Protocol: (§1) In order to test the selectivity of compounds, various enzyme assays as well as radioligand binding assays were performed using numerous non-Edg receptor targets as listed below.
(§2) A radioligand binding assay was performed using adrenergic α1 according to the method of Greengrass and Bremner 1979, Eur. J. Pharmacol. 55:323–326. A radioligand binding assay was performed using adrenergic α2 according to the method of Boyajian and Leslie, 1987, J. Pharmacol. Exp. Ther. 241:1092–1098. A radioligand binding assay was performed using adrenergic β according to the method of Feve et al., 1994, Proc. Natl. Acad. Sci. USA 91:5677–5681. A radioligand binding assay was performed using angiotensin AT2 according to the method of Whitebread et al., 1991, Biochem. Biophys. Res. Comm. 181:1365–1371. A radioligand binding assay was performed using calcium channel Type L, dihydropyridine according to the method of Ehlert et al., 1982, Life Sci. 30:2191–2202. A radioligand binding assay was performed using dopamine D2L according to the method of Bunzo et al., 1988, Nature 336:783–787. A radioligand binding assay was performed using endothelin ETA according to the method of Mihara et al., 1994, J. Phrmacol. Exp Ther. 268:1122–1127. A radioligand binding assay was performed using histamine H1 Central according to the method of Hill et al., 1978, J. Neurochem. 31:997–1004. […]
(§3) Quantitation Method: Radioligand Binding […]

[2] = test system: Muscarinic non-selective, Central; assay: Radioligand binding assay, 3H Quinuclidinyl benzilate; parameters: species or system Wistar rat; conditions: 10 μM; significance criteria ≧50% of max stimulation or inhibition
Protocol: as §1, §2, §3

`Cc1c(-c2ccccc2)nc2ccccc2c1C(=O)NCc1ccc(F)cc1` [Compound 101, 3-methyl-2-phenyl-quinoline-4-carboxylic acid 4-fluoro-benzylamide] was tested, and the “activity in standard binding assay, Angiotensin AT2” value [1] was “no activity” and the “activity in standard binding assay, Muscarinic non-selective, Central” value [2] was “no activity”.
